Laboratory results published in US7572872B2, “Biomimetic materials comprising polyhedral oligomeric silsesquioxanes” (priority 2005, dated 2009).

Columns and labels:
[1] = system: cuts through the endermal skin layer; assay: FibroPOSS treatment of cuts in a human arm; type: in vivo
Protocol: Based upon the differentiation from Example 1, a series of in vivo FibroPOSS examinations was made using [(isoOctylSiO1.5)4(isoOctyl(OH)SiO1.0)3]Σ7 and [([…])8]Σ8. In a human arm a series of six cuts were made through the endermal skin layer.
The top two cuts were treated with 100% [(isoOctylSiO1.5)4(isoOctyl(OH)SiO1.0)3]Σ7(SO1455) and [(isoOctylSiO1.5)8]Σ8 (MS0805).
The middle two cuts had 50/50 SO1450+bactin antibiotic and 50/50 MS0805+bactin antibiotic.
The bottom left cuts had 100% bactin antibiotic and the bottom right cut had no treatment.

osteoblasts = assay: Osteoblast adhesion on POSS-coated titanium; type: cell-based; conditions: from Table 2 findings
Protocol: (§1) [(RSiO1.5)4(Rl(OH)SiO1.0)3]Σ7 (1 g) was dissolved in dichlormethane and sprayed onto metallic titanium samples. The samples were then dried at 110° C. for 2 hours.
(§2) Experimental samples with 50% surface coverage of POSS were exposed to osteoblasts and fibroblasts cultured in Dulbecco's modified eagle medium (DMEM), supplemented with 10% fetal bovine serum (FBS) and 1% penicillin streptomycin (P/S), under standard cell culture conditions (sterile chamber maintained at 37° C. and a humidified environment: 5% CO2/95% air). The stock solutions were supplied by HyClone.
(§3) For this purpose, osteoblasts, and fibroblasts were separately seeded (10,000 cells cm^2) onto the experimental titanium substrate, and were allowed to adhere in standard cell culture conditions for 48 hours. After the prescribed time period, substrates were rinsed three times using phosphate-buffered saline (PBS) to remove non-adherent cells. The adhered cells were fixed with formaldehyde (Fisher), stained with Hoechst 33 258 dye (Sigma), and counted using fluorescence microscopy (365 nm excitation and 400 nm emission wavelengths). The findings in Table 2 indicate a clear differentiation in binding a cellular modulation relative to the type of R group present on the cage.
(§4) All experiments were run in triplicate, and repeated three different times.

bone = assay: Bone formation in vitro (OsteoPOSS); type: cell-based; conditions: FIG. 6
rat calvaria bone defect = assay: POSS-bone samples implanted in vivo into rat calvaria as a bone defect; conditions: eight POSS-bone samples 5 mm in length; examined after one month
fibroblasts = assay: Fibroblast adhesion on POSS-coated titanium; type: cell-based; conditions: from Table 2 findings
Protocol: as §1, §2, §3, §4

[2] = Dispersion of POSS compounds in personal care and cosmetic products; type: physicochemical; conditions: approximately 5% POSS by weight
Protocol: In light of the observed cellular differentiation and modulation promoted by nanostructured chemicals, a series of POSS, POS and POMS were added to conventional personal care and cosmetic products. […] A summary of the products and finding is listed below.
Each sample prepared consisted of approximately 5% of POSS by weight and was inspected visually and by biometric techniques for the dispersion of the POSS compound. The products in which the POSS compounds could be dispersed without being felt are listed under the POSS compounds studied.

Row | Molecule | Bleeding of cut after treatment [1] | Clotting of cut after treatment [1] | Osteoblast binding preference by R group on the cage (osteoblasts) | Bone formation in vitro (bone) | Appearance of bone implantation site (rat calvaria bone defect) | Fibroblast binding preference by R group on the cage (fibroblasts) | Observation on product after POSS addition ([2]; Dial Antibacterial Hand Soap) | Observation on product after POSS addition ([2]; Isoplus Styling Gel) | Observation on product after POSS addition ([2]; Ivory Hand Soap) | Observation on product after POSS addition ([2]; Right Guard Deodorant) | Observation on product after POSS addition ([2]; Suave Shampoo)
1 | [(isoOctylSiO1.5)8]Σ8 [MS0805] | did not show any bleeding | nor was visible clotting observed | – | – | – | – | – | – | – | – | –
2 | O[Si]1(c2ccccc2)O[Si]2(c3ccccc3)O[Si](O)(c3ccccc3)O[Si]3(c4ccccc4)O[Si](O)(c4ccccc4)O[Si](c4ccccc4)(O1)O[Si](c1ccccc1)(O2)O3 (stereo not shown) [[(phenylSiO1.5)4(phenyl(OH)SiO1.0)3]Σ7] | – | – | osteoblast exhibited a preference | form bone in vitro | indistinguishable from normal rat bone | – | – | – | – | – | –
3 | [(isoOctylSiO1.5)4(isoOctyl(OH)SiO1.0)3]Σ7 [SO1455] | did not show any bleeding | nor was visible clotting observed | – | – | – | fibroplasts preferred | remained clear | became thicker | remained clear | became thicker | remained clear
